Experimental data taken from PubChem BioAssay (NCI).
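Method: 48-hour compound exposure of cells in 96-well plates, five concentrations, linear interpolation of endpoints. At the TGI there is no net growth.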

Legend:
Assay in all cases: NCI-60 cell line screen, 48 h
[1] = test system: MOLT-4 leukemia
[2] = test system: CCRF-CEM leukemia
[3] = test system: RXF-631 renal
[4] = test system: KM12 colon
[5] = test system: SK-MEL-28 melanoma
[6] = test system: EKVX NSCLC
[7] = test system: OVCAR-5 ovarian
[8] = test system: HOP-92 NSCLC
[9] = test system: TK-10 renal
[10] = test system: NCI-H23 lung
[11] = test system: RXF 393 renal
[12] = test system: A549 NSCLC
[13] = test system: HL-60(TB) leukemia
[14] = test system: UACC-257 melanoma
[15] = test system: A498 renal
[16] = test system: DMS 273 small cell lung
[17] = test system: M14 melanoma
[18] = test system: DMS 114 small cell lung
[19] = test system: OVCAR-8 ovarian
[20] = test system: SF-295 CNS
[21] = test system: M19-MEL melanoma
[22] = test system: SNB-78 CNS
[23] = test system: NCI-H226 lung
[24] = test system: SR leukemia
[25] = test system: NCI-H522 lung
[26] = test system: NCI-H460 lung
[27] = test system: ACHN renal
[28] = test system: IGROV1 ovarian
[29] = test system: UACC-62 melanoma
[30] = test system: HCT-116 colon
[31] = test system: HT29 colon
[32] = test system: SK-OV-3 ovarian
[33] = test system: KM20L2 colon
[34] = test system: HOP-62 NSCLC
[35] = test system: U251 CNS
[36] = test system: SF-268 CNS
[37] = test system: SK-MEL-5 melanoma
[38] = test system: RPMI-8226 leukemia
[39] = test system: XF 498 CNS
[40] = test system: OVCAR-4 ovarian
[41] = test system: SNB-75 CNS
[42] = test system: 786-0 renal
[43] = test system: SK-MEL-2 melanoma
[44] = test system: OVCAR-3 ovarian
[45] = test system: SNB-19 CNS
[46] = test system: SW-620 colon
[47] = test system: HCC-2998 colon
[48] = test system: LXFL 529 NSCLC
[49] = test system: SF-539 CNS
[50] = test system: MALME-3M melanoma
[51] = test system: LOX IMVI melanoma
[52] = test system: SN12C renal
[53] = test system: UO-31 renal
[54] = test system: HCT-15 colon
[55] = test system: CAKI-1 renal
[56] = test system: K-562 leukemia
[57] = test system: COLO 205 colon
[58] = test system: HOP-18 NSCLC
[59] = test system: DLD-1 colon

NCC(=O)NC(CCCC(NC(=O)CN)P(=O)(O)O)P(=O)(O)O (centres undefined)
TGI [1]: > 100 µM
TGI [2]: > 100 µM
TGI [3]: > 100 µM
TGI [4]: > 100 µM
TGI [5]: > 100 µM
TGI [6]: > 100 µM
TGI [7]: > 100 µM
TGI [8]: > 100 µM
TGI [9]: > 100 µM
TGI [10]: > 100 µM
TGI [11]: > 100 µM
TGI [12]: > 100 µM
TGI [13]: > 100 µM
TGI [14]: > 100 µM
TGI [15]: > 100 µM
TGI [16]: > 100 µM
TGI [17]: > 100 µM
TGI [18]: > 100 µM
TGI [19]: > 100 µM
TGI [20]: > 100 µM
TGI [21]: > 100 µM
TGI [22]: > 100 µM
TGI [23]: > 100 µM
TGI [24]: > 100 µM
TGI [25]: > 100 µM
TGI [26]: > 100 µM
TGI [27]: > 100 µM
TGI [28]: > 100 µM
TGI [29]: > 100 µM
TGI [30]: > 100 µM
TGI [31]: > 100 µM
TGI [32]: > 100 µM
TGI [33]: > 100 µM
TGI [34]: > 100 µM
TGI [35]: > 100 µM

N#CCCN(CCC#N)c1ccc(/C=C2\N=C(CN3C(=O)c4ccccc4C3=O)OC2=O)cc1
TGI [36]: > 100 µM
TGI [1]: > 100 µM
TGI [3]: > 100 µM
TGI [37]: > 100 µM
TGI [4]: > 100 µM
TGI [38]: > 100 µM
TGI [5]: > 100 µM
TGI [6]: > 100 µM
TGI [39]: > 100 µM
TGI [40]: > 100 µM
TGI [41]: > 100 µM
TGI [7]: > 100 µM
TGI [12]: > 100 µM
TGI [13]: > 100 µM
TGI [14]: > 100 µM
TGI [15]: > 100 µM
TGI [42]: > 100 µM
TGI [16]: > 100 µM
TGI [43]: > 100 µM
TGI [17]: > 100 µM
TGI [18]: > 100 µM
TGI [19]: > 100 µM
TGI [20]: > 100 µM
TGI [21]: > 100 µM
TGI [44]: > 100 µM
TGI [23]: > 100 µM
TGI [45]: > 100 µM
TGI [24]: > 100 µM
TGI [46]: > 100 µM
TGI [47]: > 100 µM
TGI [48]: > 100 µM
TGI [25]: > 100 µM
TGI [26]: > 100 µM
TGI [27]: > 100 µM
TGI [28]: > 100 µM
TGI [49]: > 100 µM
TGI [50]: > 100 µM
TGI [29]: > 100 µM
TGI [30]: > 100 µM
TGI [51]: > 100 µM
TGI [52]: > 100 µM
TGI [53]: > 100 µM
TGI [31]: > 100 µM
TGI [32]: > 100 µM
TGI [54]: > 100 µM
TGI [33]: > 100 µM
TGI [55]: > 100 µM
TGI [34]: > 100 µM
TGI [35]: > 100 µM
TGI [56]: > 100 µM

COC(=O)C(=O)C(C(=O)C=C(C)C)C(=O)C(=O)Nc1ccc(Cl)cc1C (centres undefined)
TGI [36]: > 100 µM
TGI [1]: > 100 µM
TGI [2]: > 100 µM
TGI [3]: > 100 µM
TGI [37]: > 100 µM
TGI [57]: > 100 µM
TGI [4]: > 100 µM
TGI [38]: > 100 µM
TGI [5]: > 100 µM
TGI [6]: > 100 µM
TGI [40]: > 100 µM
TGI [41]: > 100 µM
TGI [7]: > 100 µM
TGI [8]: > 100 µM
TGI [9]: > 100 µM
TGI [10]: > 100 µM
TGI [11]: > 100 µM
TGI [12]: > 100 µM
TGI [13]: > 100 µM
TGI [14]: > 100 µM
TGI [15]: > 100 µM
TGI [42]: > 100 µM
TGI [16]: > 100 µM
TGI [43]: > 100 µM
TGI [17]: > 100 µM
TGI [18]: > 100 µM
TGI [19]: > 100 µM
TGI [20]: > 100 µM
TGI [58]: > 100 µM
TGI [21]: > 100 µM
TGI [44]: > 100 µM
TGI [23]: > 100 µM
TGI [45]: > 100 µM
TGI [24]: 45.2 µM
TGI [47]: > 100 µM
TGI [48]: > 100 µM
TGI [25]: > 100 µM
TGI [26]: > 100 µM
TGI [27]: > 100 µM
TGI [28]: > 100 µM
TGI [49]: > 100 µM
TGI [50]: > 100 µM
TGI [29]: > 100 µM
TGI [59]: > 100 µM
TGI [30]: > 100 µM
TGI [51]: > 100 µM
TGI [52]: > 100 µM
TGI [53]: > 100 µM
TGI [31]: > 100 µM
TGI [32]: > 100 µM
TGI [54]: > 100 µM
TGI [33]: > 100 µM
TGI [55]: > 100 µM
TGI [34]: > 100 µM
TGI [35]: > 100 µM
TGI [56]: > 100 µM

Cc1cccc(N2C(=O)C(Cl)=C(Cl)C2=O)c1
TGI [36]: > 100 µM
TGI [1]: > 75.8 µM
TGI [2]: > 61 µM
TGI [37]: > 100 µM
TGI [57]: > 100 µM
TGI [4]: > 100 µM
TGI [38]: > 78.9 µM
TGI [5]: > 100 µM
TGI [6]: > 100 µM
TGI [39]: > 100 µM
TGI [40]: > 71.7 µM
TGI [41]: > 100 µM
TGI [7]: > 100 µM
TGI [8]: > 78.6 µM
TGI [9]: > 100 µM
TGI [10]: > 100 µM
TGI [11]: 30.7 µM
TGI [12]: > 100 µM
TGI [13]: > 100 µM
TGI [14]: > 100 µM
TGI [15]: > 100 µM
TGI [42]: > 87.5 µM
TGI [16]: > 100 µM
TGI [43]: > 100 µM
TGI [17]: > 100 µM
TGI [18]: > 100 µM
TGI [19]: > 100 µM
TGI [20]: > 100 µM
TGI [58]: > 100 µM
TGI [21]: > 100 µM
TGI [22]: > 100 µM
TGI [44]: > 80.5 µM
TGI [23]: > 100 µM
TGI [45]: > 100 µM
TGI [24]: 79.7 µM
TGI [46]: > 60.7 µM
TGI [47]: > 100 µM
TGI [48]: > 56.3 µM
TGI [25]: 22.7 µM
TGI [26]: > 100 µM
TGI [27]: > 74.6 µM
TGI [28]: > 100 µM
TGI [49]: > 100 µM
TGI [50]: > 59.4 µM
TGI [29]: > 100 µM
TGI [59]: > 60.7 µM
TGI [30]: > 100 µM
TGI [51]: > 100 µM
TGI [52]: > 100 µM
TGI [53]: > 100 µM
TGI [31]: > 100 µM
TGI [32]: > 100 µM
TGI [54]: > 58.4 µM
TGI [33]: > 100 µM
TGI [55]: > 56.9 µM
TGI [34]: > 100 µM
TGI [35]: > 100 µM
TGI [56]: > 83.2 µM
